The text below walks through data of US7897563B2, “Use of oligomers and polymers for drug solubilization, stabilization, and delivery” (Soane Family Trust, priority 2001, dated 2011).

For data set [1] the following is noted: octanol/water, nominal temperature of 25 C; from table in CRC Handbook of Chemistry and Physics; cited from earlier work.
The procedure of data set [2]: Log P values measure the partitioning of a molecule between an octanol-rich and a water-rich layer in contact with one another (see CRC Handbook of Chemistry and Physics, 79th edition, Lide, ed., pp. 16-42-16-46, CRC Press, 1998; and references within, all of which are incorporated herein by reference). Log P values are measured at a nominal temperature of 25 C. More preferably, hydrophobic means having a log P value greater than about 0.5, even more preferably a log P value greater than about 1, even more preferably a log P value greater than about 1.5, and most preferably a log P value greater than about 2.

Usually log P stands for the decadic logarithm of the partition coefficient of the neutral form, usually between octanol and water. On to `CCCCOC(C)=O` [butyl acetate], for which the “log P” value in data set [1] was 1.82. In the case of poly(lactic acid), the “log P (estimate from a similar small molecule)” value in data set [2] is on record as “approximately 0.2”.
